# Values joined by “and” are separate entries in the source; they are usually repeats but may differ in a detail not shown here. Equal entries are not always repeated.
# Assays:
# [1] = Modified ASTM D2272 (150 C.), constant time; assay type: physicochemical; conditions: after oxidation
# Experimental: 1. Charge the vessel with 50 grams of the emulsion sample provided.
# 3. Unless noted above, the other test details are identical to ASTM D2272.
# With the success of the 95° C. modified ASTM, thermal breakdown for the metalworking fluids at even higher temperature was tested. The test chosen was a modified ASTM D2272 (RBOT) which is run at 150° C. in a sealed bomb, which should provide sufficient stress to provide significant oxidative breakdown of the metalworking fluid. The test was modified so that after the inhibited sample had reduced pressure by 175 psi, all of the oxidations were stopped so that the time of the oxidation would be a constant (typically the test is run to a constant pressure drop value and the time is allowed to vary). […] Additionally, the pH of all samples dropped from the initial 9.0 to 3.0, with the exception of the sample of Naugalube 640, which dropped to 7.0.
# [2] = RBOT, standard ASTM D2272 (150 C.), bomb life; assay type: physicochemical
# From the text: (§1) The antioxidants used in this study were received from internal and external commercial sources without alteration. The sample of butylated DPA was from a preparation of Naugalube 640 in which the sample was enriched in butylated DPA.
# The ASTM D2272 method was run according to the standard procedure using a 10/90 (oil/water) emulsion as a test sample.
# [3] = Modified ASTM D3946 bottle test, sediment and pH (Examples 25-34); assay type: physicochemical; conditions: 25° C.; filtered at end of test
# Experimental: (§2) A modified ASTM D3946 method was run according to the following procedure:
# (§3) 1. A 1-quart straight side jar was filled with 500 mL of emulsion. (Note: the straight sides of the jar allow culture plates to be immersed in the emulsion in situ. No steel chips were added.)
# (§4) 2. While immersed in a 25° C. water bath, the jars were sparged with air using a disposable pipette at a flow rate of approximately 500 mL/min. (Note: this may need to be adjusted depending on the air supply and the amount of foaming observed).
# (§5) 3. The pH was measured using standard pH paper or pH meter and bacteria/fungus counts were measured at one and two week intervals using culture plates (SaniCheck BF culture plates from Biosan Laboratories, Inc. were use in this study, but there are many suppliers available). Although the manufacturers protocol called for incubation between 24 and 36 hours, the bacteria counts were measured after 24, 30, and 48-hour incubations at 28° C. The bacterial onset was measured as the number of weeks necessary to observe at least a 10^3 bacteria count/mL on the culture plate (threshold value of this type of plate). Optionally, the average bacterial count can be calculated over the length of the test period.
# 4. At the end of the test, the solutions were filtered through medium filter paper (Whatman #2) and the amount of sediment recovered was weighed.
# (§6) 5. Unless noted above, the other test details are identical to ASTM D3946.
# In this case, after 22 weeks the pH broke and dropped from 9.0 to 7.0. In all other samples, the pH was measured between 8.5 and 9.0, without significant change over the test period.
# [4] = test system: bacteria; test: Modified ASTM D3946 bottle test, bacteria count and onset (Examples 25-34); assay type: cell-based; conditions: 30 hours of incubation
# Experimental: as §2, §3, §4, §5, §6
# The biological activity was evaluated using a Sanicheck BF Conversion Chart. […]
# [5] = TOST, standard ASTM D943 (95° C.), acid number; assay type: physicochemical; conditions: 0.5% Triadine-3 in Hyprene H100; two separate runs; baseline
# From the text: as §1
# Combining the results of Examples 11-24 with those of Examples 1-10, the synergies involved in the oxidation testing used can be seen. […] Hyprene H100 is a 100 SUS naphthenic oil. Although there is a large variation in the baseline, the general antioxidant chemistry trends (phenolic vs. aminic) were consistent.
# [6] = Modified ASTM D943 oxidation (95 C.), constant time; assay type: physicochemical; conditions: aging time 312 hrs
# Experimental: 1. Fill the oxidation test tube with 300 ml of the emulsion sample provided.
# 2. When the first sample containing no antioxidant or biocide reaches a TAN (total acid number) of 2.0 mg/g KOH, stop all of the oxidations at that same time and measure the TAN. During the course of the testing it may be necessary to add a small amount of defoamer (1 drop of Foam Ban MS-575 from Ultra Additives) to prevent excessive foaming and loss of sample out of the top of the test apparatus. 3. Unless noted above the other test details are identical to ASTM D943
# Accordingly, additional thermal stress was applied to accentuate differences in antioxidant performance. The test chosen to do this was a modified ASTM D943 run at 95° C., which it was expected would provide some oxidative breakdown of the metalworking fluid. The test was modified so that after the uninhibited sample had reached a TAN value of 2 mg KOH/g all of the oxidations were stopped so that the time of the oxidation would be a constant (typically the test is run to a constant TAN value and the time is allowed to vary).
compound,measurement,setting,value
butylated octylated diphenylamine [Naugalube 640],Cream (%),[1],< 1.0%
same,pH,[1]; initial 9.0,7.0
same,Bomb Life (min),"[2]; 150 C., Table 1 blends",terminated before a break point was ever observed
same,Sediment,[3],reduced the sediment
same,synergy of antioxidant and biocide on onset time,[4],strongest
"OCCN1CN(CCO)CN(CCO)C1 [Triadine 3, 1,3,5-tris(hydroxyethyl)-s-triazine]",Bomb Life,"[2]; 0.5% Triadine-3 in Hyprene H100, two separate runs, baseline",35 min and 37 min
same,Oxidation Lifetime,[5],492 h and 836 h
"mono-, di-, and tri-, nonylated diphenylamine [Naugalube 438L]",Cream (%),[6],no significant cream
butylated octylated diphenylamine [butylated DPA],Sediment,[3],reduced the sediment
octylated phenyl-α-naphthylamine [Naugalube APAN],Cream (%),[6],no significant cream
"CC(C)(C)c1cc(CCC(=O)OCCSCCOC(=O)CCc2cc(C(C)(C)C)c(O)c(C(C)(C)C)c2)cc(C(C)(C)C)c1O [AX 15, Thiodiethylene-bis(3,5-di-t-butyl-4-hydroxyhydrocinnamate)]",Sediment,[3],reduced the sediment
"Cc1cc(C(C)(C)C)c(O)c(C(C)(C)C)c1 [BHT, 2,6-di-t-butyl hydroxytoluene]",Sediment,[3],antagonistically increased the sediment in combination with biocide
same,synergy of antioxidant and biocide on onset time,[4],weakest
